In PubChem BioAssay AID2305 (GlaxoSmithKline (GSK), 2010):

The molecules below were run on P. falciparum 3D7 growth, pLDH absorbance (assay: P. falciparum 3D7 growth inhibition, dose response, strain 3D7 (AID 2305)).

Compound | IC50 [nM]
CC(C)N1CCN(C(CN2CCN(CCCOc3ccc4ccccc4c3)CC2)c2ccc(F)cc2)CC1 (centres undefined) | 580
Cn1cccc1CCNCc1ccc(-c2cccc(-c3nc4ccc(F)cc4[nH]3)c2)cc1 | 1220
O=C(NCCN1CCCC1)c1cccc(Nc2nccc(Nc3ccc(Oc4ccccc4)cc3)n2)c1 | 650
Cc1cc2nc(-c3ccc(C(=O)NCCCc4ccccc4)cc3)[nH]c2cc1C | 1180
COc1cc(Cc2cnc(N)nc2N)cc(OCCNC(=O)OCc2ccccc2)c1OC | 920
COCCCNC(=S)NN=C(C)c1ccccn1 | 300
CCN(CC)S(=O)(=O)c1ccc(Cl)c(C(=O)Nc2ccc3nc(C)sc3c2)c1 | 800
CCNC(=O)Nc1cccc(-c2cccc(-c3nc4ccc(C(F)(F)F)cc4[nH]3)c2)c1 | 680
CC[C@H]1CN2CC[C@@H]1C[C@H]2[C@H](O)c1cc(N2CCC(C)CC2)nc2ccc(OC)cc12 | 170
O[C@@H](c1ccc2ccccc2c1)[C@@H]1CN(CCc2ccccc2)CC[C@@]1(O)c1ccccc1 | 550
Cc1cccc2[nH]c(-c3ccc(-c4ccc(CN5CCN(c6cnccn6)CC5)cc4)s3)nc12 | 750
CCCC1N=C(N)N=C(N)N1c1cccc([N+](=O)[O-])c1 (centres undefined) | 760
CC(Cc1ccc(Sc2ccccc2)cc1)NCC(O)c1cccc(C(F)(F)F)c1 (centres undefined) | 590
O=S(=O)(Nc1cc2c(cc1OCCCN1CCCCC1)CCNCC2)c1ccc(-c2ccc(Cl)cc2)cc1 | 1000
N#Cc1ccc(CN2CCC(Oc3ccc(NC(=O)c4ccco4)cc3Cl)CC2)cc1 | 380
CN(C)C(CNc1ncnc2cc(Cl)ccc12)Cc1ccccc1 (centres undefined) | 870
CCC[C@@H]([C@@H](CC(C)C)C(=O)N[C@@H](CCCCNC(=O)c1cccc(OC)c1)C(=O)Nc1nccs1)N(O)C=O | 100
Cc1cc(NC(=O)Nc2ccc(Oc3ccccc3)cc2)c2ccccc2n1 | 840
CCCC(C)Nc1nc(C)cc(N[C@@H](CC(C)C)C(=O)NCCc2ccccc2)n1 (some centres undefined) | 1360
Cc1[nH]c(C)c(-c2ccc(-c3ccccc3F)nc2)c(=O)c1Br | 400
N#Cc1ccc(NC(=NC2CCCc3ccccc32)Nc2ccc(-c3ccccc3)cc2)c(O)c1 (centres undefined) | 780
NC(N)=NC(=O)Nc1ccc(Cl)c(C(F)(F)F)c1 | 590
CCOc1ccccc1NC(=O)Nc1ccc2c(c1)CCN(C1CCC1)CC2 | 1110
CNC(=O)c1cc(S(=O)(=O)N2CCN(c3ccccn3)CC2)c(C)s1 | 1160
COc1ccc(OC)c(C=NNc2nc3ccccc3[nH]2)c1 | 730

Compound | IC50 [nM]
CCOC(=O)C(NC(=O)c1ccc([N+](=O)[O-])o1)C(C)C (centres undefined) | 1060
COc1ccc2nccc(NN=Cc3cccc(F)c3)c2c1 | 750
COc1ccc(NC(=O)c2cc(NC(=O)C3(N)CC3)c(=O)n(Cc3ccc(C(N)=O)cc3)c2)cc1 | 790
Oc1cc(-c2nc(C3(CNCc4ccc(Cl)cc4)CCCCC3)[nH]c2-c2ccncc2)ccc1Cl | 130
CC(C)Sc1nc2c(c(=O)n1Cc1ccco1)C1(CCCC1)Cc1ccccc1-2 | 1630
CC(Cc1ccc(OCC(=O)NCC2CCN(CCc3cccc(Cl)c3)CC2)cc1)NCCc1cccc(Cl)c1 (centres undefined) | 660
C#CCOc1ccc2ccccc2c1CNCCCCCCNCc1c(OCC#C)ccc2ccccc12 | 780
CC1CCCCN1CCCNc1ncc2c(-c3ccc(NC(=O)Nc4cc(C(F)(F)F)ccc4F)c(F)c3)nn(C)c2n1 (centres undefined) | 260
Nc1cccc(CNCc2cccc(-c3cccc(-c4nc5ccc(F)cc5[nH]4)c3)c2)c1 | 690
Cc1ccc(C2(CN3CCC(NC(=O)c4[nH]ncc4Cl)CC3)CCCCC2)cc1 | 320
CCCc1cc(OC)c(CC2c3cc(O)c(C)cc3CCN2C)cc1OC (centres undefined) | 700
CN1CCN(CCCN(Cc2csc(-c3ccc(CNCc4ccccc4)cc3)n2)S(=O)(=O)c2cccc3cccnc23)CC1 | 1410
COc1ccc(Cc2cnc3nc(N)nc(N)c3c2C)cc1 | 30
CN(C)CCNCc1nc(-c2ccc3c(Nc4ccc(Oc5ccccc5)cc4)ccnc3c2)cs1 | 740
COc1ccc(CNC2CCN(C)CC2)cc1-c1ccc(S(=O)(=O)NCC2CCCO2)s1 (centres undefined) | 800
N[C@@H](CCN1CCC(c2cccc(O)c2)CC1)Cc1ccc(F)c(F)c1 | 1110
CCOC(=O)NOC(C(=O)O)c1ccccc1 (centres undefined) | 190
O=C(NCc1cccnc1)C(c1cc2ccccc2o1)N1CCN(C(c2ccccc2)c2ccccc2)CC1 (centres undefined) | 710
Cc1cccc2[nH]c(-c3cccc(-c4cccc(NC(=O)c5cccnc5Cl)c4)c3)nc12 | 710
Cc1ccc2[nH]c(C)c(Br)c(=O)c2c1 | 810
CCOC(=O)C(C(=O)OCC)c1nc(C)ns1 | 470
CN1CCN(CCCN(Cc2cccc(-c3ccc(CNCc4ccc5c(c4)OCO5)cc3)c2)C(=O)CCC2CCCC2)CC1 | 1000
Cc1nc2ccc(Nc3nccc(-c4c(-c5cccc(NC(=O)c6c(F)cccc6F)c5)nn5ccccc45)n3)cc2nc1C | 1070
CN(C)c1cc(NC(=O)Nc2ccc(SC(F)(F)F)cc2)c2ccccc2n1 | 140
O=C(/C=C/c1ccc(Cl)c(Cl)c1)NCCCCCN1CCC(NC(=O)Nc2ccc(Cl)cc2F)CC1 | 310

Compound | IC50 [nM]
Oc1ccc(CCCNc2nc(NCc3ccccc3-c3ccccc3)nc(NC3CCNCC3)n2)cc1 | 860
Nc1ncc(-c2ccc3nccc(-c4ccncc4)c3c2)cc1S(=O)(=O)N1CCCCC1 | 580
CC(C)CC1(C(=O)OC(C)(C)C)CC(C(=O)OC(C)(C)C)C(c2cccs2)N1C(=O)c1ccc(C(C)(C)C)cc1 (centres undefined) | 140
N#CC(c1ccc(Br)cc1)c1ccc2c(C(F)(F)F)cc(C(F)(F)F)nc2n1 (centres undefined) | 440
CNc1ccc(CNCc2cccc(-c3ccc(-c4nc5ccc(C(F)(F)F)cc5[nH]4)cc3)c2)cc1 | 110
O=C(NC1CCN(Cc2ccccc2)CC1)c1ccc(-c2nc3cc4ccccc4cc3[nH]2)s1 | 600
Clc1ccc(Cn2nc(Br)nc2Br)c(Cl)c1 | 440
CN(c1ccc(NC(=O)Nc2cc(C(C)(C)C)on2)cc1)c1ccnc(NCCN2CCOCC2)n1 | 1120
CC(NC(=O)NC1CCC(CCN2CCCc3ccccc32)CC1)c1cccc2ccccc12 (centres undefined) | 1020
COc1cc(OC)cc(-c2nn(-c3ccc([N+](=O)[O-])cc3Cl)c(=S)n2CC2CCCO2)c1 (centres undefined) | 960
O=C(Cc1ccccc1)NC(CCN1CCC(O)(c2cccc(C(F)(F)F)c2)CC1)c1ccc(Cl)c(Cl)c1 (centres undefined) | 860
Oc1ccc(Cl)c2c1C(c1ccccc1)=NCC2 | 540
CCCCc1ccc(-c2ccc3[nH]c(C)c(Br)c(=O)c3c2)cc1 | 110
COC(=O)c1cccc(CNCc2cccc(-c3ccc(-c4nc5c(C)cccc5[nH]4)cc3)c2)c1 | 320
Cc1sc2nc(CSc3ccccc3)nc(N3CCN(CC(=O)N4CCCC4)CC3)c2c1C | 1260
CC[C@H]1CN2CC[C@H]1C[C@H]2[C@H](O)c1cc(Cl)nc2ccc(OC)cc12 | 580
CCn1c(-c2nonc2N)nc2c(-c3cccc(NC(=O)Nc4ccccc4OC)c3)ncc(OCCCN)c21 | 1000
COc1ccc(CNC(=O)Nc2cc3cc(-c4ccc(CN(C)C)cc4)ccc3n3c(C)nnc23)cc1 | 850
COc1ccc2nc(-c3ccc(C(=O)NCCCN4CCN(c5cc(Cl)ccc5OC)CC4)cc3)[nH]c2c1 | 770
CN1CCCN(Cc2cccc(-c3cccc(NC(=O)c4cccc(Cl)c4)c3)c2)CC1 | 890
COc1cc(Nc2nccc(N3CCC(NC(=O)c4cc5ccccc5s4)C3)n2)cc(OC)c1OC (centres undefined) | 790
c1ccc(-c2cccc(-c3ccccn3)n2)nc1 | 900
O=S(=O)(NC1CCN(c2ccnc3cc(Cl)ccc23)C1)c1ccc(C(F)(F)F)cc1 (centres undefined) | 300
O=C(c1ccc(Cl)cc1)C1CCCN(C2CCN(CCc3ccccc3)CC2)C1 (centres undefined) | 1450
Oc1ccc(CCCNc2nc(NCc3cccc4ccccc34)nc(N3CCNCC3)n2)cc1 | 810

Compound | IC50 [nM]
CC(C)C(C(=O)Nc1ccc(S(=O)(=O)N(C)C)cc1)c1ccc(Cl)cc1 (centres undefined) | 940
NCCNC(=O)c1ccc(-c2cnc3[nH]cc(-c4ccc(C(N)=O)cc4)c3c2)cc1 | 170
O=C(NC1CCCCC1)N(Cc1cccc(-c2ccc(CNCc3ccc4c(c3)OCO4)cc2)c1)C1CCN(Cc2ccccc2)CC1 | 790
CCCC(C)Nc1nc(C)cc(N[C@@H](CC(C)C)C(=O)NCc2ccc(C)cc2)n1 (some centres undefined) | 1010
Cc1cccc2[nH]c(-c3cccc(-c4ccc(NC(=O)C5CCCO5)cc4)c3)nc12 (centres undefined) | 900
Cc1ccc2c(c1)c(-c1ccccc1)c(-c1ccccc1)n2CC(O)CN1CCN(CC=Cc2ccccc2)CC1 (centres undefined) | 780
CN(C)CCN(Cc1ccccc1-c1ccc(CNCCc2ccccc2)cc1)C(=O)c1ccccc1 | 1700
N#Cc1cc([N+](=O)[O-])ccc1-n1nc(-c2cccc(Cl)c2)n(Cc2ccco2)c1=S | 200
Cc1c(CNCCCNc2cc(=O)c3ccccc3[nH]2)sc(/C=N/O)c1Br | 1080
O=C(Cc1cnc[nH]1)Nc1ccc(-c2ccc(-c3nc4ccccc4[nH]3)s2)cc1 | 1060
Oc1ccc(CN2CCC(NCc3cccc4ccccc34)CC2)cc1 | 1200
O=C(/C=C/c1ccc(Cl)c(Cl)c1)NCCCCCN1CCC(NC(=O)c2ccc([N+](=O)[O-])cc2)CC1 | 670
Cc1ccc(C(=O)Nc2ccc(F)c(F)c2F)cc1S(=O)(=O)N1CCCCC1 | 760
COc1ccc(-c2cccc(NC(=O)c3ccc(C#N)cc3)c2)cc1CN(C)CCN(C)C | 70
CSc1ccc2nccc(Nc3ccc(Oc4ccccc4)cc3)c2c1 | 870
CCc1c(C(=O)NC2CCC(N3CCC(c4ccccc4C)CC3)CC2)[nH]c2ccc(Br)cc12 (centres undefined) | 930
Clc1cc(Cl)cc(Nc2ccnc(Nc3cc(Cl)cc(Cl)c3)n2)c1 | 670
CCc1ccc(OCc2ccccc2C(=O)Nc2ccc3nc(C)cc(N)c3c2)cc1 | 200
O=C(Nc1cccc(-c2cccc(-c3ccc(F)cc3)n2)c1)c1ccc([N+](=O)[O-])o1 | 360
C[C@H](NC(=O)c1cc(-c2ccc(C(C)(C)C)cc2)no1)C(=O)O (tested in a mixture with another compound) | 140
COc1ccc2nccc([C@@H](O)CN3CCC(NC(=O)c4ccc(-c5ccc(C#N)cc5)cc4)CC3)c2c1 | 160
NCC1CCCN1Cc1cccc(-c2ccc(-c3nc4ccc(C(F)(F)F)cc4[nH]3)cc2)c1 (centres undefined) | 780
CCCCCC(C)N=C(Nc1ccc([N+](=O)[O-])cc1O)Nc1ccccc1Br (centres undefined) | 620
CCC(CC)(Cc1ccccc1)NC(=O)[C@H](CC(C)C)Nc1ccc(C#N)c2ccccc12 | 910
